Laboratory results reported in US6949528B1, “Compositions containing lysophosphatidic acids which inhibit apoptosis and uses thereof” (priority 1998, dated 2005).
Like-named read-outs stand apart in the source and are kept apart here.

B1: α-fetoprotein: α-fetoprotein from fetal bovine serum (protein, UniProt Q3SZ57 19-610, looked up)
Alpha-fetoprotein: RTMHKNAYGIDSILDSSPCSSGTNLVGLATIFFAQSVQGATYEEVSQMVKDVLTIIEKPTGSKQPAGCLENQVSAFLEEICREKEIPEKYGLSDCCSRTGEERHDCFLAHKKAAPASIPPFPVLEPVTSCKSYKENRELFINRYIYEIARRHPVLYAPTILSVANQYNKIIPHCCKAENATECFETKVTSITKELRESSLLNQHICAVMGKFGPRTFRAITVTKVSQKFPKANFTEIQKLVMDVAHIHEECCKGNVLECLQDGERVMSYICSQQDILSRQIAECCKLPTTLELGHCIIHAENDDKPEGLSPNVNRFLGDRDFNQLSSRDKDLSMARFTYEYSRRHTKLAVPIILRVAKGYQELLEKCSQSENPSECQDKGEEELEKYIQESQALAKRSCGLFQKLGEYYLQNAFLVAYTKKAPQLTSPELMALTRKMANAGAICCHLSEDKQLACGEGVADLIIGHLCIRHEENPINPGVDQCCTSSYSNRRPCFSSLVVDETYVPPPFSDDKFIFHKDLCQVQGVPLQTMKQQFLINLVKQKPQITEEQLETVVADFSGLLEKCCQSQEQEVCFTEEGPALISKTRAALGV

What was measured:
[1] = test system: rat neonatal cardiomyocytes; assay: Cardiomyocyte death induced by serum/glucose deprivation; format: cell-based; conditions: for Emax: Rattus norvegicus, Cardiomyocyte, read-out: Maximum effect relative to 18:1 LPA in cardiomyocytes
Experimental: Cardiomyocytes were prepared from hearts of day-old Sprague Dawley rats by trypsinization and mechanical disaggregation (Simpson, (1985)) Circ. Res. 56:884-894. The cells were resuspended in MEM, 1×MEM vitamins (Gibco), 5% fetal bovine serum and 50 U/ml penicillin-G and pre-plated for 30 minutes to reduce contamination of non-myocytes. The non-adherent cardiac myocytes were separated and seeded in 2 ml in 35 mm dishes at a density of 3.5×10^5 viable cells per ml. The cells were allowed to adhere for 16-24 hours in a 37° C./5% CO2 humidified incubator.
For serum deprivation, the medium was replaced with fresh serum-free RPMI, whereas serum/glucose deprivation was performed using glucose-free RPMI. The induction of cell death by adriamycin or C2-ceramide was accomplished by the addition of the agent prepared in serum-free RPMI. As a model of ischemia, cultures in serum and glucose free RPMI were placed in an airtight chamber and the latter was continuously perfused with oxygen-free gas overlay of 95% N2/5% CO2 for 8 hours at 37° C. To model reperfusion of the ischemic cells, 10% fetal bovine serum, 2 g/L of glucose were added and the cultures were returned to a normal oxygen gas overlay (37° C./5% CO2) in a humidified incubator for 16 hours.
T investigate effects of LPA, LPA plus other phospholipids, PEG or their mixtures on cell death, various combinations of these components were added to cells in serum free medium at the beginning of cytotoxic treatment.
Because cardiomyocytes are terminally differentiated non-dividing cells, viability was determined by measurement of the decrease in the relative number of adherent cells. […] Adherent cardiomyocytes were collected from culture dishes using 0.25% Trypsin/0.05% EDTA and counted on Coulter Counter ZM and Coulter Channelyzer 256.

[2] = test system: C3H/10T1/2 cells; assay: Anti-apoptotic activity assay: serum deprivation of C3H/10T1/2 cells; format: cell-based; conditions: for activity compared with lysophosphatidic acid: Table 3
Excerpt: In order to determine the […] of the claimed invention, the following method of analysis was used. The cell assay is described in detail in U.S. Pat. Nos. 5,637,486, 5,620,888, and 5,681,703, and Tomei et al. (1993) Proc Natl. Aci. 90:853-857. Briefly, mouse fibroblast C3H/10T1/2 cells (clone 8) were obtained from ATCC (Rockville, Md.) and were maintained in exponential growth phase in which the cell cycle is randomly distributed and no cells are arrested in G0, and in quiescence. Exponential growth phase was assured by seeding at 2000 cells per 1 ml (5 ml for 60 mm culture plate) five days prior to the beginning of the experiment. Assays were performed on cells only up to passage 15. At T=0, cultures were transferred to serum-free medium, as an appropriate stimulus, and seed extracts were added. Controls included 10^−7 and 5×10^−8 M 12-O-tetradecanoyl phorbol-13-acetate (TPA) to ensure the responsiveness of the cell culture. The samples were added to serum free medium and sterile filtered prior to addition to the cultures. Assays were performed in triplicate or quadruplicate. Analyses of the cell responses were made between 18 and 28 hours of serum deprivation. Two assays were performed on each cell culture plate consisting of differential cell counts.
1. All non-adherent or loosely adherent cells were removed from the culture dish and counted by appropriate techniques, typically counting by electronic particle counting instrument. These are the apoptotic cells, the serum deprived released cells (SDR), released by the action of cultivation in serum-free medium. Approximately 95% of these released cells are apoptotic as shown by both ultrastructure analysis and DNA fragmentation analysis.
2. The remaining adherent cells (ADH) were exposed to a buffered, typically pH 7.3, balanced salt solution such as a Hanks Balanced Salt Solution without calcium and magnesium salts containing 0.05% trypsin and 0.53 mM ethylene diaminetetraacetic acid (EDTA). Each culture was incubated at either room temperature or 37(C on a rocking platform to ensure uniform distribution of the trypsin reagent over the culture surface. After a standardized period of time, typically 10 minutes, the released cells were removed from each culture dish and measured by the same means as described above, typically electronic particle counting. This ADH cell count is comprised of both trypsin resistant and trypsin sensitive cells as described in U.S. Pat. Nos. 5,637,486, 5,620,888, and 5,681,703.
Anti-apoptotic activity is expressed in the following examples as the calculated concentration of material ((g/ml of media) required to save 50% of the cells released on serum free treatment.
The ability of 18:1-LPA an other LPAs to protect serum-starved cells from apoptotic death was measured using the C3H/10T1/2 cell assay, performed as described in Example 2. The effect of various compounds on the ability of lysophosphatidic acid to protect serum-starved cells from apoptotic death was also measured. Log phase cells were seeded in 60 mm Petri dishes at 175-350 cells per cm2 and maintained in Basal Medium Eagle (BME) supplemented with 10% Heat Inactivated Fetal Bovine Serum (HIFBS). On day 3 the cells were given fresh media. Treatment began on day 5 when the media containing serum was removed and replaced with the LPA mixture to be tested. After 24 hours of treatment, day 6, serum deprived released (SDR) cells (the […] cell population) and adherent (ADH) cells were separated and counted using an electronic cell counter (Coulter Corporation, Hialea, Fla.). […]

[3] = Electrophoresis radiobinding assay (native polyacrylamide gel); format: binding; conditions: FIG. 9 and other experiments
Experimental: Electrophoresis radiobinding assay. Proteins were analyzed on native polyacrylamide gels following incubation with ^3H-labeled 18:1-LPA. ^3H-labeled lysophosphatidic acid (1-oleyl) (DuPont NEN Products, Boston, Mass.) was added to tested proteins at 1 nM labeled 18:1-LPA/45_(g protein. Mixtures were incubated at a bicarbonate buffered saline/EDTA solution at 37° C. for 60 minutes. Incubated samples were mixed with native gel sample buffer (312_mM Tris pH 6.8, 50% glycerol, 0.05% bromophenol blue) and loaded entirely onto an 8% discontinuous native polyacrylamide gel. Following electrophoresis, proteins were fixed into the gels using an aqueous solution consisting of glacial acetic acid, 10% (vol/vol) and methan 130% (vol./vol.) solution. Fixed gels were then incubated for 60 minutes in autoradiography enhancer (EN^3HANCE, DuPont NEN Products, Boston, Mass.), and dried onto 3M chromatography paper (Whatman, Clifton, N.J.) and exposed to autoradiography film (X-Omat, Kodak, Rochester, N.Y.) for 72 hours at −80° C.

[4] = serum-deprived C3H/10T1/2 cells, 24 hours of treatment

Molecule	Concentration ranges for cardiomyocyte protection ([1]; serum/glucose deprivation)	Concentration for Max Effect [2, 4]	Maximum effect relative to 18:1 LPA in cardiomyocytes ([1]; serum/glucose deprivation)	Maximum effect relative to 18:1 LPA [2, 4]	other results
CCCCCCCCCCCCCCOCC(O)COP(=O)(O)O (racemic) [Compound 4, 3-O-Tetradecyl-rac-glycero-1-phosphate]					Toxic concentration range in cardiomyocytes ([1]; serum/glucose deprivation): Toxic (3-30 μM); Maximum effect relative to 18:1 LPA: Toxic [2]: Toxic; lowest concentration at which cytotoxic effects were observed (column Concentration for Max Effect) ([2]; mouse, 24 h): 10 µM
CCCCCCCC/C=C\CCCCCCCCOCC(O)COP(=O)(O)O (racemic) [Compound 12, 3-O-Oleyl-rac-glycero-1-phosphate]	1 to 10 µM	10 µM			Emax ([1]; serum/glucose deprivation): 100%; Emax ([2]; Mus musculus, serum-deprived C3H/10T1/2 cells, 24 hours of treatment, read-out: Maximum effect relative to 18:1 LPA): 100%
CCCCCCCC/C=C\CCCCCCCC(=O)OCC(COP(=O)(OC)OC)OC (racemic) [Compound 45, Dimethyl 3-O-oleoyl-2-O-methyl-rac-glycero-1-phosphate]	30 µM				Emax [1]: 30%
CCCCCCCC/C=C\CCCCCCCC(=O)OCC(COP(O)(O)=S)OC (racemic) [Compound 48, 3-O-Oleoyl-2-O-methyl-rac-glycero-1-thiophosphate]	.03 to 10 µM	1 µM	100%	130%	activity compared with lysophosphatidic acid [2]: activity significantly higher than lysophosphaticid acid
CCCCCCCC/C=C\CCCCCCCCOCC(COP(O)(O)=S)OC (racemic) [Compound 66, 3-O-Oleyl-2-O-methyl-rac-glycero-1-thiophosphate]	.03 to 1 µM	1 µM	60%	130%	activity compared with lysophosphatidic acid [2]: activity significantly higher than lysophosphaticid acid
CCCCCCCC/C=C\CCCCCCCCOC(=O)C(COP(O)(O)=S)OC (racemic) [Compound 78, Oleyl 1-thiophosphoryl-2-O-methyl-rac-glycerate]	.01 to 3 µM	1 µM	130%	160%	activity compared with lysophosphatidic acid [2]: activity significantly higher than lysophosphaticid acid
CCCCCCCC/C=C\CCCCCCCCOCCCOP(=O)(O)O [Compound 16, 3-O-Oleyloxypropyl-1-phosphate]	1 to 3 µM	10 µM	100%	100%	
CCCCCCCCCCOCCCOP(=O)(O)O [Compound 19, 3-Decyloxypropyl-1-phosphate]	1 to 10 µM	30 µM	100%	50%	
CCCCCCCC/C=C\CCCCCCCC(=O)OCCCOP(=O)(O)O [Compound 30, 1-(3-propyl oleoate)phosphate]	1 to 10 µM	30 µM	150%	100%	
CCCCCCCC/C=C\CCCCCCCC(=O)OCCCOP(O)(O)=S [Compound 68, 1-(3-propyloleoate)thiophosphate]	.003 to 10 µM	1 µM	100%	150%	
B1					binding to 18:1-LPA, detectable band [3]: bind to 18:1-LPA
